pKi: −log10 of the molar value.
Experiments:
GABAA/α2 = target: T1, GABAA/α2 (Homo sapiens, UniProt P18507+P47869); details: intermediate affinity; Huang et al., J. Med. Chem. 2000; cited from earlier work
T1 sequence (P47869 29-451): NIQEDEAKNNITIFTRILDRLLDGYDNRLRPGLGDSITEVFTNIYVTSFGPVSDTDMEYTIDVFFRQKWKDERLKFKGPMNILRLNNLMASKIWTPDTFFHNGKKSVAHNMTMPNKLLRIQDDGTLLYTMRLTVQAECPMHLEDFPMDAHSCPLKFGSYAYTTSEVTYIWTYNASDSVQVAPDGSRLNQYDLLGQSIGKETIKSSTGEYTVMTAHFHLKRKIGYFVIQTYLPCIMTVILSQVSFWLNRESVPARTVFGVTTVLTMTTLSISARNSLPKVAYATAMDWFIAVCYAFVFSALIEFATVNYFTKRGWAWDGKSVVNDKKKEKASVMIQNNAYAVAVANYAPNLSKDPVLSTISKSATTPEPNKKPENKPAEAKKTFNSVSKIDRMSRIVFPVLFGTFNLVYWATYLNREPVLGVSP
T1 sequence (P18507 40-467 limits assumed): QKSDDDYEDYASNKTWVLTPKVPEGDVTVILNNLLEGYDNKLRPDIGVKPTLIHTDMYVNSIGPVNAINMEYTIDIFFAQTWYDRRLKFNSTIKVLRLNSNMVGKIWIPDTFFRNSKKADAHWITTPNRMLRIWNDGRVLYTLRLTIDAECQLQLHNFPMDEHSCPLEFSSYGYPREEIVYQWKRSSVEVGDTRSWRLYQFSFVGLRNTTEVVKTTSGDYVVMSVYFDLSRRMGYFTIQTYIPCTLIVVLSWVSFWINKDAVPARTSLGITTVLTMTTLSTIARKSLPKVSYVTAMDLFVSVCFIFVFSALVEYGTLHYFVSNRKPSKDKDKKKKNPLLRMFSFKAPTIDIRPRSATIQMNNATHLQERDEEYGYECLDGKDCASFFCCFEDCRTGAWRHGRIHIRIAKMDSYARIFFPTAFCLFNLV
T1 sequence (P28472 26-473 partner): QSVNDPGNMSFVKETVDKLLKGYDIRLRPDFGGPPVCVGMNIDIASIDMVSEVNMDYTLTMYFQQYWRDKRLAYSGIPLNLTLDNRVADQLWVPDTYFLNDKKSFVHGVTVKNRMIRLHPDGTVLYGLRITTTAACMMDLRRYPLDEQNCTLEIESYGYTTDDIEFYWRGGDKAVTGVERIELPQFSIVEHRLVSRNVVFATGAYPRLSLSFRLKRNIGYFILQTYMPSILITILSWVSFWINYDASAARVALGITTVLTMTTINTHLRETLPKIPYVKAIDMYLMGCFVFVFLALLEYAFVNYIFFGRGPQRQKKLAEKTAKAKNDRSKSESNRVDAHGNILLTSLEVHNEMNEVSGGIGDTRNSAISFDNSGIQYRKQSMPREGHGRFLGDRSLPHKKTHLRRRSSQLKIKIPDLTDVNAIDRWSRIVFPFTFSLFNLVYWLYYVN

GABAA/α5 receptors = target: T2, GABAA/α5 receptors (Homo sapiens, UniProt P18507+P31644); details: high affinity; Huang et al., J. Med. Chem. 2000; cited from earlier work
T2 sequence (P31644 32-462): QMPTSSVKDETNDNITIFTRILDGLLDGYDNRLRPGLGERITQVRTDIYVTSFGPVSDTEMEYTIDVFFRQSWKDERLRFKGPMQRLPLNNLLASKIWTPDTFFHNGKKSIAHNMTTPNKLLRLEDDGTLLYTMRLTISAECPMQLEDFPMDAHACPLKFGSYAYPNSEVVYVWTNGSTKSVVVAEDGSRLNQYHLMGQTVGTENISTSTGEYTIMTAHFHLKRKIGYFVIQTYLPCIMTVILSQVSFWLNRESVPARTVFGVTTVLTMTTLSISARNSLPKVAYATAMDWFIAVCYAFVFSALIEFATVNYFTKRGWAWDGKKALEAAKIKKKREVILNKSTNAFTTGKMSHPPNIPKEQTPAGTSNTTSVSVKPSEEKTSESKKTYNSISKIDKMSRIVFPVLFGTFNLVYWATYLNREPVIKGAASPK
T2 sequence (P18507 40-467 limits assumed): T1 sequence (P18507 40-467 limits assumed)
T2 sequence (P28472 26-473 partner): T1 sequence (P28472 26-473 partner)

GABAA/α3 = target: T3, GABAA/α3 (Homo sapiens, UniProt P18507+P34903); details: intermediate affinity; Huang et al., J. Med. Chem. 2000; cited from earlier work
T3 sequence (P34903 29-492): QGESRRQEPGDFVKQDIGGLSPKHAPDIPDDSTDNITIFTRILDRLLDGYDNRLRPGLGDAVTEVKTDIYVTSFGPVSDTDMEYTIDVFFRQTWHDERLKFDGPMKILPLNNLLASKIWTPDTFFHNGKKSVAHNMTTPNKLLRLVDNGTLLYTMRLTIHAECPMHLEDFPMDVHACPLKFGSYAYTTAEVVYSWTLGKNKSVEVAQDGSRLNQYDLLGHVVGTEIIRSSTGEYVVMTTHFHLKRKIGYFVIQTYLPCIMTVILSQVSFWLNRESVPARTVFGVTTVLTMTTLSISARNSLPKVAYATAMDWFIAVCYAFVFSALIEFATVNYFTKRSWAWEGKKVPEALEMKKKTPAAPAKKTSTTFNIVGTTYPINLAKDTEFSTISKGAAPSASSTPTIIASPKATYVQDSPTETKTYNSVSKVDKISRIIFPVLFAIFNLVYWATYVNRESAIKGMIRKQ
T3 sequence (P18507 40-467 limits assumed): T1 sequence (P18507 40-467 limits assumed)
T3 sequence (P28472 26-473 partner): T1 sequence (P28472 26-473 partner)

GABAA/α1 receptors = target: T4, GABAA/α1 receptors (Homo sapiens, UniProt P14867+P18507); details: poorer affinity; Huang et al., J. Med. Chem. 2000; cited from earlier work
T4 sequence (P14867 28-456): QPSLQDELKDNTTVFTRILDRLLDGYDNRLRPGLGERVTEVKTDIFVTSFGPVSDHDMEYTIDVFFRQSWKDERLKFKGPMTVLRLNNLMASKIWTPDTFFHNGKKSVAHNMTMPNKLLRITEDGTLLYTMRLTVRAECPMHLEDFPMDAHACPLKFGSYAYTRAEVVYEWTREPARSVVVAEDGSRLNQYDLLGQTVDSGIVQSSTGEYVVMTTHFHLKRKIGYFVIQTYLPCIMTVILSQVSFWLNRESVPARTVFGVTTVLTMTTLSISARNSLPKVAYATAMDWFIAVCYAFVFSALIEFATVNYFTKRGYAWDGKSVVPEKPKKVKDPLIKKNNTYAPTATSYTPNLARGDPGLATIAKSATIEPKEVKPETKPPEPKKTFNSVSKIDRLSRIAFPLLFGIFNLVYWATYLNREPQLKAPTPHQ
T4 sequence (P18507 40-467 limits assumed): T1 sequence (P18507 40-467 limits assumed)
T4 sequence (P28472 26-473 partner): T1 sequence (P28472 26-473 partner)

[1] = Incubation with heat-inactivated human liver microsomes (stability control); details: 60 min
Method: (§1) The test articles were incubated at two concentrations (1 and 10 μM) in 96-well plate format with active or heat-inactivated human liver microsomes and cofactors. Aliquots were removed at 0, 15, 30 and 60 minutes and mixed with acetonitrile containing internal standard for analysis. Samples were extracted and assayed using a liquid chromatography/tandem mass spectrometry (LC-MS/MS) analytical method.
(§2) The test articles (1 and 10 μM) were incubated with human liver microsomes (0.5 mg protein/ml) and appropriate cofactors (2.5 mM NADPH and 3.3 mM magnesium chloride) in 100 mM phosphate buffer, pH 7.4 (0.1% final DMSO), in a 37° C. water bath. Incubations with all compounds were initiated with the addition of microsomes. At selected time points (0, 15, 30 and 60 min), a single 100 μl aliquot was removed from each sample and mixed with 200 μl of chilled acetonitrile containing internal standard. Following brief vortexing and centrifugation, the samples were further diluted into a 96-well plate for subsequent LC-MS/MS analysis. All samples were assayed in duplicate.
(§3) Experimental controls consisted of: a) incubation of all components except test article for 0 and 60 min, b) incubation of midazolam (positive control) at 10 μM for 0, 15, 30 and 60 min, and c) incubation of 1 and 10 μM test article and 10 μM midazolam with heat-inactivated microsomes (0.5 mg protein/ml) for 0 and 60 min. All controls were assayed in duplicate.
(§4) Data from the metabolic stability assays were transferred to and processed in a Microsoft Excel spreadsheet. To determine metabolic stability, the percent remaining at each time point was calculated by dividing the peak area ratio of test article/internal standard at each time point by the peak area ratio at 0 min multiplied by 100.

[2] = In vitro metabolic stability using human liver microsomes
Method: The metabolic stability of 15 GABAA receptor ligands using human liver microsomes was studied. The test articles were incubated at two concentrations (1 and 10 μM) and aliquots (100 μl) were removed at various time points (0, 15, 30 and 60 minutes), and analyzed by LC-MS/MS.
as §1
Pooled human liver microsomes (Lot #38289, pool of 150 different male and female donor livers) were obtained from BD Biosciences Corporation (Woburn, Mass.). Microsomes were stored at ˜−135° C. until use.
as §2, §3
Samples were analyzed by LC-MS/MS in multiple reaction monitoring mode using positive-ion electrospray ionization. The details of the LC-MS/MS method can be provided upon request.
as §4

rhesus monkeys = test: Conflict procedure (anxiolytic and sedating effects) in rhesus monkeys; type: in vivo; details: i.v., cumulative dosing, data for one monkey (FIG. 14)
Text: Other methods for evaluating compounds are known to those skilled in the art. For example, an assessment of anxiolytic effects of compounds can be accomplished objectively and quantitatively with operant-based conflict procedures, as described in Fischer et al. Neuropharmacology 59 (2010) 612-618. Briefly, behavior which is positively reinforced can be suppressed in these procedures by response-contingent administration of a noxious stimulus such as mild electric shock. […] The strength of conflict procedures is their predictive validity with respect to expected therapeutic effects in humans. Results from the Fischer et al. indicate that benzodiazepine-like drugs that have pharmacological activity for α2GABAA and/or α3GABAA receptors and low receptor activity at α 1GABAA and α5GABAA receptors may be useful, particularly as non-sedating anxiolytics. […]
Test sessions were conducted once or twice per week when monkeys reached stable performance, defined as the average rates of responding for component 1 and component 2 not varying by ±20% over five consecutive sessions, with no upward or downward trends. […] The dependent measure was the average rates of responding (responses/s), calculated by dividing responses by time during components 1 and 2, excluding responding during time outs or reinforcer delivery.

[3] = target: all four diazepam-sensitive GABAA receptors; details: Huang et al., J. Med. Chem. 2000; cited from earlier work

C#Cc1ccc2c(c1)C(c1ccccc1)=NCC(=O)N2C [QH-ii-066]
pKi (GABAA/α2): > 7.30 | pKi (GABAA/α5 receptors): > 8.00 | pKi (GABAA/α3): > 7.30 | pKi (GABAA/α1 receptors): < 7.15

C#Cc1ccc2c(c1)C(c1ccccc1F)=NCc1c(C(=O)OCCCOC(=O)c3ncn4c3CN=C(c3ccccc3F)c3cc(C#C)ccc3-4)ncn1-2 [YT-III-271, Propane-1,3-Diyl-Bis-(8-Ethynyl-6-(2-Fluorophenyl)-4H-Benzo-[1]-Imidazo-[1,5-a]-[1,4]-Diazepine-3-Carboxylate)]
Mean % Remaining vs T = 0 min, with HI (Heat Inactivated) Microsomes ([1]; 1 μM): 117% | Mean % Remaining vs T = 0 min, with HI (Heat Inactivated) Microsomes ([1]; 10 μM): 97.0% | Mean % Remaining vs T = 0 min, Human Liver Microsomes ([2]; 1 μM, 15 min): 97.1% | Mean % Remaining vs T = 0 min, Human Liver Microsomes ([2]; 1 μM, 30 min): 83.5% | Mean % Remaining vs T = 0 min, Human Liver Microsomes ([2]; 10 μM, 15 min): 104% | Mean % Remaining vs T = 0 min, Human Liver Microsomes ([2]; 10 μM, 30 min): 102% | Mean % Remaining vs T = 0 min, Human Liver Microsomes ([2]; 10 μM, 60 min): 91.1% | anxiolytic effect (suppressed responding) (rhesus monkeys): clearly anxiolytic | sedating effect (non-suppressed responding) (rhesus monkeys): nonsedating

CN1C(=O)CN=C(c2ccccc2)c2cc(Cl)ccc21 [diazepam]
pKi [3]: > 7.60

Source: patent US9597342B2 (UWM Research Foundation, Inc., priority 2011, dated 2017)
